Measured values published in patent US10221163B2 (priority 2015, dated 2019).
Read-outs that look alike come from different tables or passages of the source.

Key:
[1] = tested on: Pseudomonas aeruginosa efflux− (MB9799), IMP-1; type: cell-based; settings: concentration restoring susceptibility to imipenem at 2 μg/mL in the presence of a class A, C, D serine β-lactamase inhibitor closely related to relebactam
Procedure, shortened: (§1)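 P. aeruginosa PAO1-derived IMP-1 strains, efflux+ MB9798 and efflux− MB9799, tested by standard microbroth MIC with imipenem and/or ceftazidime fixed, usually at CLSI breakpoint, plus fixed class A/C β-lactamase inhibitor against AmpC. Inhibitor titrated; concentration restoring susceptibility recorded; MB9798/MB9799 fold difference indicates efflux.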

[2] = target: NDM-1 (Klebsiella pneumoniae, UniProt C7C422); test: biochemical; type: biochemical; settings: fluorescence assay, CCF2-FA substrate, 1 pM enzyme, 2 hours at 25° C.; read-out: NDM-1 IC50
Chain of NDM-1 (C7C422 whole entry, looked up, species assumed): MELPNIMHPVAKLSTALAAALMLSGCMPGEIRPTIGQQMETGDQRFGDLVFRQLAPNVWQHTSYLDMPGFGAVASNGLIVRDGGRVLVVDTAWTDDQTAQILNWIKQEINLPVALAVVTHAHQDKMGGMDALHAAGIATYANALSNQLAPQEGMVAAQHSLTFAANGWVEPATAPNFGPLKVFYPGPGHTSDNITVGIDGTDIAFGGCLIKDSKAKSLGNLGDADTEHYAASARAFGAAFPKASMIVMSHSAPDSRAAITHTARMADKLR
Procedure, shortened: (§2)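 Test compound, enzyme and the FRET cephalosporin substrate CCF2-FA are incubated together for 2 hours at 25° C. Cleavage is followed by fluorescence, and IC50 values are derived from semi-logarithmic inhibition curves fitted with a 4-parameter model.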

[3] = target: IMP-1 (Serratia marcescens, UniProt P52699); test: biochemical; type: biochemical; settings: fluorescence assay, CCF2-FA substrate, 2 pM enzyme, 2 hours at 25° C.; read-out: IMP-1 IC50
Chain of IMP-1 (P52699 whole entry, looked up, species assumed): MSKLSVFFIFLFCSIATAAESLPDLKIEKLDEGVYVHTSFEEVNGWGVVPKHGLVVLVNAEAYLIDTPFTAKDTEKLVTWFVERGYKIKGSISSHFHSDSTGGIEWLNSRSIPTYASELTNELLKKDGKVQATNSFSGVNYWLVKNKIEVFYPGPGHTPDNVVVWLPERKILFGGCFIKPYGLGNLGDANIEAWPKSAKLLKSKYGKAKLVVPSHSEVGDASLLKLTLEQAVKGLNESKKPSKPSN
Procedure, shortened: as §2

[4] = tested on: Escherichia coli expressing NDM-1 (CLB30005, CLB30016); type: cell-based; settings: with imipenem 1 μg/ml; 95% inhibition of bacterial growth
Procedure, shortened: (§3)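 Growth by absorbance after 22–24 h at 35°C defined the read-out, with imipenem fixed at 1 μg/ml alongside compound. Inocula came from overnight blood-agar colonies at 35°C, resuspended in saline and diluted 1:100 in 1.1×CAMHB.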

[5] = tested on: Serratia marcescens expressing IMP-1 (CL5741); type: cell-based; settings: with imipenem 1 μg/ml; 95% inhibition of bacterial growth
Procedure, shortened: as §3

[6] = tested on: Klebsiella pneumoniae expressing VIM-1 (IHMA599644); type: cell-based; settings: with imipenem 1 μg/ml; 95% inhibition of bacterial growth
Procedure, shortened: as §3

[7] = target: VIM-1 (Pseudomonas aeruginosa (strain ATCC 15692 / DSM 22644 / CIP 104116 / JCM 14847 / LMG 12228 / 1C / PRS 101 / PAO1), UniProt A0A0F7KYQ8); test: biochemical; settings: CCF2-FA substrate, 30 pM enzyme, 2 hours at 25° C.
Procedure, shortened: as §2

[8] = tested on: Pseudomonas aeruginosa efflux+ (MB9798), IMP-1; type: cell-based; settings: concentration restoring susceptibility to imipenem at 2 μg/mL in the presence of a class A, C, D serine β-lactamase inhibitor closely related to relebactam
Procedure, shortened: as §1

[9] = tested on: Pseudomonas aeruginosa MB9798 vs MB9799; settings: ratio MITC95 PA_9798/MITC95 PA_9799
Procedure, shortened: as §1

[10] = fluorescence assay, read-out: VIM-1 IC50

SMILES	P. aeruginosa expressing IMP-1, efflux − (MB9799) MITC95 [1]	IC50 [2]	IC50 [3]	Escherichia coli expressing NDM-1 (CLB30016) MITC95 [4]	Serratia marcescens expressing IMP-1 (CL5741) MITC95 [5]	Klebsiella pneumoniae expressing VIM-1 (IHMA599644) MITC95 [6]	IC50 [7, 10]	P. aeruginosa expressing IMP-1, efflux + (MB9798) MITC95 [8]	Efflux ratio [9]	IC50 ([7]; VIM-1 IC50, fluorescence assay)
Nc1nc2c(-c3ccc(S(=O)(=O)N[C@H]4CNC[C@@H]4F)c(S(N)(=O)=O)c3-c3nnn[nH]3)cccc2s1 [Example 59, 4-(2-amino-1,3-benzothiazol-4-yl)-N1-[(3S,4S)-4-fluoropyrrolidin-3-yl]-3-(1H-tetrazol-5-yl)benzene-1,2-disulfonamide]	1.563 µM	0.0357 nM	0.558 nM	1.563 µM	1.563 µM	3.125 µM	0.309 nM	1.563 µM	1.00	
NS(=O)(=O)c1c(S(=O)(=O)N[C@@H]2CCNC2)ccc(-c2cccc3nonc23)c1-c1nn[nH]n1 [Example 238]	0.7813 µM	0.111 nM	0.8 nM	1.563 µM	0.7813 µM	1.563 µM	0.0653 nM	3.125 µM	4.00	
NC(=O)c1ccc(-c2ccc(S(=O)(=O)N[C@@H]3CCNC3)c(S(N)(=O)=O)c2-c2nnn[nH]2)cc1 [Example 137, (R)-4′-(N-(pyrrolidin-3-yl)sulfamoyl)-3′-sulfamoyl-2′-(1H-tetrazol-5-yl)-[1,1′-biphenyl]-4-carboxamide]	0.7813 µM	0.126 nM	0.265 nM	3.125 µM	3.125 µM	3.125 µM	0.157 nM	0.7813 µM	1.00	
NCCNS(=O)(=O)c1ccc(-c2ccc(N)nc2)c(-c2nn[nH]n2)c1S(N)(=O)=O [Example 196, N^1-(2-aminoethyl)-4-(6-aminopyridin-3-yl)-3-(2H-tetrazol-5-yl)benzene-1,2-disulfonamide]	0.7656 µM	0.328 nM	0.479 nM	0.03125 µM	0.2969 µM	1.336 µM	0.218 nM	0.7656 µM	1.00	
NS(=O)(=O)c1c(S(=O)(=O)N[C@@H]2CCNC2)ccc(-c2cccc3nc(O)[nH]c23)c1-c1nnn[nH]1 [Example 130, (R)-4-(2-hydroxy-1H-benzo[d]imidazol-7-yl)-N1-(pyrrolidin-3-yl)-3-(1H-tetrazol-5-yl)benzene-1,2-disulfonamide]	1.563 µM	0.0529 nM	0.684 nM	1.563 µM	1.563 µM	3.125 µM	0.151 nM	0.7813 µM	0.50	
Nc1nc2c(-c3ccc(S(=O)(=O)N[C@H]4CCCNC4)c(S(N)(=O)=O)c3-c3nnn[nH]3)cccc2s1 [Example 67, 4-(2-amino-1,3-benzothiazol-4-yl)-N1-[(3S)-piperidin-3-yl]-3-(1H-tetrazol-5-yl)benzene-1,2-disulfonamide]	1.563 µM	0.0407 nM	0.488 nM	1.563 µM	1.563 µM	3.125 µM		1.563 µM	1.00	0.271 nM
